# Assay results reported in ChEMBL document CHEMBL1781923, “Synthesis and anti-tumor evaluation of panaxadiol derivatives” (Eur J Med Chem, 2011).
# Tests used:
# [1] = Cytotoxicity against human ES2 cells after 48 hrs by MTT assay; assay type: functional, cell-based; settings: ES-2, 48 h
# U2OS [2] = assay: Cytotoxicity against human U2OS cells after 48 hrs by MTT assay; assay type: functional, cell-based
# HepG2 [3] = assay: Cytotoxicity against human HepG2 cells after 48 hrs by MTT assay; assay type: functional, cell-based; settings: HepG2, 48 h
# A549 [4] = assay: Cytotoxicity against human A549 cells after 48 hrs by MTT assay; assay type: functional, cell-based; settings: A549, 48 h
# [5] = Cytotoxicity against human ES2 cells assessed as cell viability at 25 uM after 48 hrs by MTT assay; assay type: functional; settings: ES-2, 48 h, read-out: Activity
# [6] = Cytotoxicity against human ES2 cells assessed as cell viability at 50 uM after 48 hrs by MTT assay; assay type: functional; settings: ES-2, 48 h, read-out: Activity
# U2OS [7] = assay: Cytotoxicity against human U2OS cells assessed as cell viability at 25 uM after 48 hrs by MTT assay; assay type: functional; settings: read-out: Activity
# U2OS [8] = assay: Cytotoxicity against human U2OS cells assessed as cell viability at 50 uM after 48 hrs by MTT assay; assay type: functional; settings: read-out: Activity
# HepG2 [9] = assay: Cytotoxicity against human HepG2 cells assessed as cell viability at 25 uM after 48 hrs by MTT assay; assay type: functional; settings: HepG2, 48 h, read-out: Activity
# HepG2 [10] = assay: Cytotoxicity against human HepG2 cells assessed as cell viability at 50 uM after 48 hrs by MTT assay; assay type: functional; settings: HepG2, 48 h, read-out: Activity
# A549 [11] = assay: Cytotoxicity against human A549 cells assessed as cell viability at 50 uM after 48 hrs by MTT assay; assay type: functional; settings: A549, 48 h, read-out: Activity
# A549 [12] = assay: Cytotoxicity against human A549 cells assessed as cell viability at 100 uM after 48 hrs by MTT assay; assay type: functional; settings: A549, 48 h, read-out: Activity
Structure (SMILES),IC50 [1] [µM],IC50 (U2OS [2]) [µM],IC50 (HepG2 [3]) [µM],IC50 (A549 [4]) [µM],viability at 25 µM [5] [%],viability at 50 µM [6] [%],viability at 25 µM (U2OS [7]) [%],viability at 50 µM (U2OS [8]) [%],viability at 25 µM (HepG2 [9]) [%],viability at 50 µM (HepG2 [10]) [%],viability at 50 µM (A549 [11]) [%],viability at 100 µM (A549 [12]) [%]
CC(C)=CCC[C@@](C)(O)[C@H]1CC[C@]2(C)[C@@H]1[C@H](O)C[C@@H]1[C@@]3(C)CC[C@H](O[C@@H]4O[C@H](CO)[C@@H](O)[C@H](O)[C@H]4O[C@@H]4O[C@H](CO)[C@@H](O)[C@H](O)[C@H]4O)C(C)(C)[C@@H]3CC[C@]12C,> 100,> 100,> 100,> 100,82,74.5,72.2,81.3,81.3,76.2,75.6,71.1
C=CCCC(=O)O[C@H]1CC[C@]2(C)[C@H]3C[C@@H](O)[C@@H]4[C@@H]([C@@]5(C)CCCC(C)(C)O5)CC[C@@]4(C)[C@]3(C)CC[C@H]2C1(C)C,11.8,39,> 50,> 50,,,,,,,,
CCCCCCCC/C=C/CCCCCCCCCCCC(=O)O[C@H]1CC[C@]2(C)[C@H]3C[C@@H](O)[C@@H]4[C@@H]([C@@]5(C)CCCC(C)(C)O5)CC[C@@]4(C)[C@]3(C)CC[C@H]2C1(C)C,14.8,40.5,> 50,> 50,,,,,,,,
CCC/C=C/C(=O)O[C@H]1CC[C@]2(C)[C@H]3C[C@@H](O)[C@@H]4[C@@H]([C@@]5(C)CCCC(C)(C)O5)CC[C@@]4(C)[C@]3(C)CC[C@H]2C1(C)C,13.7,43.9,> 50,> 50,,,,,,,,
C=CCCCCCCCCC(=O)O[C@H]1CC[C@]2(C)[C@H]3C[C@@H](O)[C@@H]4[C@@H]([C@@]5(C)CCCC(C)(C)O5)CC[C@@]4(C)[C@]3(C)CC[C@H]2C1(C)C,19.4,31.6,> 50,> 50,,,,,,,,
CC(C)C(N)C(=O)O[C@H]1CC[C@]2(C)[C@H]3C[C@@H](O)[C@@H]4[C@@H]([C@@]5(C)CCCC(C)(C)O5)CC[C@@]4(C)[C@]3(C)CC[C@H]2C1(C)C (stereo partly specified),16.2,17.3,9.29,31.8,14.6,6.47,16.4,13.7,26.4,11.7,21.2,15.4
CSCCC(N)C(=O)O[C@H]1CC[C@]2(C)[C@H]3C[C@@H](O)[C@@H]4[C@@H]([C@@]5(C)CCCC(C)(C)O5)CC[C@@]4(C)[C@]3(C)CC[C@H]2C1(C)C (stereo partly specified),13.1,16.8,11.8,22.4,13,6.4,18.4,11.6,28.4,8.56,21.6,12.7
CC1(C)CCC[C@](C)([C@H]2CC[C@]3(C)[C@@H]2[C@H](O)C[C@@H]2[C@@]4(C)CC[C@H](O)C(C)(C)[C@@H]4CC[C@]23C)O1 [PANAXADIOL],5.61,26.8,37.9,43.1,18.8,12.4,53.4,25.7,69,37.7,36,24.5
C/C=C/C=C/C(=O)O[C@H]1CC[C@]2(C)[C@H]3C[C@@H](O)[C@@H]4[C@@H]([C@@]5(C)CCCC(C)(C)O5)CC[C@@]4(C)[C@]3(C)CC[C@H]2C1(C)C,13.7,43.3,> 50,> 50,,,,,,,,
CC1(C)CCC[C@](C)([C@H]2CC[C@]3(C)[C@@H]2[C@H](O)C[C@@H]2[C@@]4(C)CC[C@H](OC(=O)C5CCCN5)C(C)(C)[C@@H]4CC[C@]23C)O1 (stereo partly specified),16.7,14.4,8.91,7.63,10.4,6.04,12.4,8.72,5.72,6.39,19.5,14.1
CCCCC/C=C/C/C=C/CCCCCCCC(=O)O[C@H]1CC[C@]2(C)[C@H]3C[C@@H](O)[C@@H]4[C@@H]([C@@]5(C)CCCC(C)(C)O5)CC[C@@]4(C)[C@]3(C)CC[C@H]2C1(C)C,17.9,32.1,> 50,> 50,,,,,,,,
CC1(C)CCC[C@](C)([C@H]2CC[C@]3(C)[C@@H]2[C@H](O)C[C@@H]2[C@@]4(C)CC[C@H](OC(=O)CN)C(C)(C)[C@@H]4CC[C@]23C)O1,9.9,13.7,11.3,14,7.51,6.66,13,12,10.3,10,18.7,13.5
C=CC(=O)O[C@H]1CC[C@]2(C)[C@H]3C[C@@H](O)[C@@H]4[C@@H]([C@@]5(C)CCCC(C)(C)O5)CC[C@@]4(C)[C@]3(C)CC[C@H]2C1(C)C,8.02,20.8,> 50,> 50,,,,,,,,
CCCCCCCC/C=C/CCCCCCCC(=O)O[C@H]1CC[C@]2(C)[C@H]3C[C@@H](O)[C@@H]4[C@@H]([C@@]5(C)CCCC(C)(C)O5)CC[C@@]4(C)[C@]3(C)CC[C@H]2C1(C)C,20.9,16.6,> 50,> 50,,,,,,,,
CC1(C)CCC[C@](C)([C@H]2CC[C@]3(C)[C@@H]2[C@H](O)C[C@@H]2[C@@]4(C)CC[C@H](OC(=O)C(N)Cc5ccccc5)C(C)(C)[C@@H]4CC[C@]23C)O1 (stereo partly specified),15.2,16.4,8.82,18.6,10.3,8.58,15,10.9,9.95,8.82,20.5,15.2
CC(C)CC(N)C(=O)O[C@H]1CC[C@]2(C)[C@H]3C[C@@H](O)[C@@H]4[C@@H]([C@@]5(C)CCCC(C)(C)O5)CC[C@@]4(C)[C@]3(C)CC[C@H]2C1(C)C (stereo partly specified),17.9,18,5.03,24.9,10.8,6.91,18.1,14.3,28.1,15.3,18.1,10.5
C/C=C(\C)C(=O)O[C@H]1CC[C@]2(C)[C@H]3C[C@@H](O)[C@@H]4[C@@H]([C@@]5(C)CCCC(C)(C)O5)CC[C@@]4(C)[C@]3(C)CC[C@H]2C1(C)C,4.26,14.7,> 50,> 50,,,,,,,,
CC/C=C(\C)C(=O)O[C@H]1CC[C@]2(C)[C@H]3C[C@@H](O)[C@@H]4[C@@H]([C@@]5(C)CCCC(C)(C)O5)CC[C@@]4(C)[C@]3(C)CC[C@H]2C1(C)C,24.2,38,> 50,> 50,,,,,,,,
